{"source": "patent US20220168392A1", "about": "(priority 2019, published 2022)", "key": {"Rat": {"tested_on": "Rat", "assay": "Maximum platelet elevation relative to baseline in normal healthy rats, single escalating doses", "assay_type": "in vivo", "design": "key to pharmacodynamics (PD) effect class of the dose (beneficial effects on survival): **: large pharmacodynamics (PD) effect; *: modest effect", "settings": "for Rat Max Platelet Ratio: TOX6984", "source_text": "The ratio of the maximum platelet counts to the baseline platelet counts following single escalating doses of RWJ-800088 to mice, rats, dogs, rhesus monkeys and human healthy volunteers is shown in Table 5. The dose required to achieve a 2-3.5-fold elevation in humans is ˜100-fold lower compared to mice, ˜1,000-fold lower compared to rats and >10,000-fold lower compared to canines and NHPs. […] The species differences in potency has been described for other TPO mimetics in the literature and is attributed to differences in receptor affinity (Erickson-Miller C L, et al. Discovery and characterization of a selective, nonpeptidyl thrombopoietin receptor agonist. Exp. Hematol. 2005; 33:85-93). […] It is discovered that the dose of RWJ-800088 that produces a survival benefit and protects against vascular and organ injury is the dose that produces a 2-4 fold elevation of platelets (Table 6)."}, "[1]": {"tested_on": "dogs after whole body radiation at an LD50 exposure", "assay": "Dog pilot whole body irradiation study", "assay_type": "in vivo", "settings": "single 10 mg/kg dose 24 hours after whole body radiation at LD50", "procedure": "A pilot radio-mitigation study was conducted in dogs with RWJ-800088."}, "[2]": {"tested_on": "CD2F1 male mice exposed to supra-lethal TBI", "assay": "Survival and recovery from gastrointestinal injury at supra-lethal TBI", "assay_type": "in vivo, mouse", "procedure": "Data are expressed as mean±Standard error of mean (SEM). Irradiated TPOm group compared with saline treated group, statistical significance by Student T test (p≤0.0001)\nBacterial translocation was determined as bacterial load in liver and spleen tissue as a result of radiation injury to the intestines and was quantified by real-time polymerase chain reaction (PCR) using the 16S rRNA gene consensus sequence. Naïve jejunum serves as a positive control and naïve spleen and liver serve as negative controls/baseline values. Data are expressed as mean±Standard error of mean (SEM). Irradiated TPOm group compared with saline treated group, statistical significance by Student T test (p≤0.0001).\nData are expressed as mean±Standard error of mean (SEM). Irradiated TPOm group compared with saline treated group, statistical significance by Student T test (p≤0.0001). Serum amaloyd A (SAA) and pro-calcitonin (PCT), sepsis markers, were both measured by ELISA.\nJejunum samples were collected at days 1, 3, 7, 9 post-TBI. Representative sections were stained with H&E. There was a 100% increased survival in the RWJ-800088 treated mice compared to the saline treated animals (FIG. 9A—Kaplan Meier plot)."}, "[3]": {"tested_on": "CD2F1 mice exposed to TBI (7 Gy)", "assay": "Circulating biomarkers (EPO, FLT3 ligand, MMP9, VCAM1, E-Selectin, sP-Selectin) after 7 Gy TBI", "assay_type": "in vivo, mouse", "procedure": "Harvesting blood and tissues for various molecular assays: RWJ-800088 (0.3 mg/kg) or saline (n=6 per group) was administered SC 24 hour prior to irradiation. The experimental animals received either 0 or 7 Gy radiation (non-lethal dose) in the AFRRI Co-60 gamma radiation facility. […] The femurs and sterna were then collected and processed as described below."}, "[4]": {"tested_on": "Rats, prostate irradiation", "assay": "Prostate irradiation in rats (Table 6)", "assay_type": "in vivo, rat", "settings": "3 mg/kg, whole wrapped cell: Protection of vascular size and function"}, "[5]": {"tested_on": "CD2F1 mice exposed to TBI (7 Gy)", "assay": "Hematological recovery (peripheral blood counts) after non-lethal 7 Gy TBI", "assay_type": "in vivo, mouse", "procedure": "Hematological recovery with RWJ-800088: To study the effects of prophylactic administration of RWJ-800088 on the recovery from hematopoietic injury following TBI, CD2F1 mice (n=10 per group) were treated with either a single dose of RWJ-800088 (0.3 mg/kg) or its vehicle (saline) 24 hours pre-TBI at a non-lethal dose of 7.0 Gy. This dose allows the animals to recover completely from the radiation-induced hematopoietic injury. In addition, a group of sham irradiated mice were given either the drug or saline. Blood collection was performed using a 23 G needle from the submandibular vein after anesthetizing the mice with isoflurane (Hospira Inc., Lake Forest, Ill.) at 2 hours and on days 1, 3, 7, 10, 14, 21, and 30 post-TBI. All mice were allowed to recover fully from anesthesia and monitored closely for any signs of a post-anesthesia reaction or bleeding at the collection site before returned to group housed cages. Approximately 20 μL of blood was collected in EDTA tubes and was continually rotated until CBC/differential analysis was completed using a HESKA Element HT™ 5 Analyzer system (HESKA Corporation, Loveland, Colo.). This CBC/differential analysis included white blood cells (WBC) counts, absolute neutrophil counts (Liem-Moolenaar, Clin Pharmacol Ther. 2008 October; 84(4):481-7), monocytes (MON), lymphocytes (LYM), red blood cells (RBC), hematocrits (HCT), and platelets (PLT) counts."}, "[6]": {"settings": "day 7 post-TBI 7 Gy, 0.3 mg/kg 24 h pre-TBI"}, "[7]": {"settings": "day 10 post-TBI 7 Gy, 0.3 mg/kg 24 h pre-TBI"}, "[8]": {"settings": "day 14 post-TBI 7 Gy, 0.3 mg/kg 24 h pre-TBI"}}, "note": "Square brackets hold non-standard residues; d marks the D form. * marks the point of attachment. 2Nal = N[C@@H](Cc1ccc2ccccc2c1)C(=O)O; Propionyl = CCC(=O)*; Sar = CNCC(=O)O"}
{"substance": "methoxypolyethyleneglycol20000-propionyl-L-Isoleucyl-L-Glutamyl-Glycyl-L-Prolyl-L-Threonyl-L-Leucyl-L-Arginyl-L-Glutaminyl-L-2-Naphthylalanyl-L-Leucyl-L-Alanyl-L-Alanyl-L-Arginyl-Sarcosyl-Ne-(methoxypolyethyleneglycol20000-propionyl-L-Isoleucyl-L-Glutamyl-Glycyl-L-Prolyl-L-Threonyl-L-Leucyl-L-Arginyl-L-Glutaminyl-L-2-Naphthylalanyl-L-Leucyl-L-Alanyl-L-Alanyl-L-Arginyl-Sarcosyl-)-Lysinamide ({mPEG 20 kDa-Propionyl}-IEGPTLRQ[2Nal]LAAR[Sar]K-NH2; also: dimer: second identical mPEG-propionyl chain on Lys Nε of C-terminal lysinamide) [RWJ-800088]", "values": [{"measurement": "Average of the Maximum Platelet Elevation/Baseline Platelet Counts", "setting": "Rat; Rat, dose 3000 μg/kg", "result": 3.1}, {"measurement": "pharmacodynamics (PD) effect class of the dose (beneficial effects on survival)", "setting": "Rat; Rat, dose 3000 μg/kg", "result": "**"}, {"measurement": "Dose for 2.0-4x Platelet Elevation in Healthy Subjects", "setting": "Rat; Rats", "result": "≥3", "unit": "mg/kg"}, {"measurement": "Rat Max Platelet Ratio", "setting": "Rat; dose 100 μg/kg", "result": "1.0 ± 0.2"}, {"measurement": "Rat Max Platelet Ratio", "setting": "Rat; dose 300 μg/kg", "result": "1.7 ± 0.3"}, {"measurement": "Rat Max Platelet Ratio", "setting": "Rat; dose 3000 μg/kg", "result": "3.2 ± 0.6"}, {"measurement": "Blood transfusions", "setting": "[1]", "result": "1.25/ /animal"}, {"measurement": "Days of febrile neutropenia", "setting": "[1]", "result": 1.08}, {"measurement": "Diarrhea", "setting": "[1]", "result": "2/12"}, {"measurement": "Mean survival time", "setting": "[1]", "result": 36, "unit": "days"}, {"measurement": "Mild to moderate necrohemorrhagic bronchioalveolar or minimal subacute bronchioalveolar inflammation", "setting": "[1]", "result": "6/12"}, {"measurement": "Mild to severe hematopoietic bone marrow hypocellularity", "setting": "[1]", "result": "6/12"}, {"measurement": "Mortality", "setting": "[1]", "result": "7/12"}, {"measurement": "Neutropenia nadir", "setting": "[1]", "result": "9e+07", "unit": "L⁻¹"}, {"measurement": "Severe neutropenia duration", "setting": "[1]", "result": 5.4}, {"measurement": "bacterial translocation to the liver and spleen", "setting": "[2]; 1 mg/kg 24 hours prior to TBI (12.5 Gy per FIG. 10 legend)", "result": "significantly reduced"}, {"measurement": "number of viable crypts in jejunum", "setting": "[2]; 11 Gy, 1 mg/kg 24 h prior to TBI (FIG. 9C)", "result": "significant increase"}, {"measurement": "increased survival compared to saline treated animals", "setting": "[2]; 11 Gy, 1 mg/kg 24 h prior to TBI, 8 mice/group/time point (FIG. 9A)", "result": 100, "unit": "%"}, {"measurement": "circulating sepsis biomarkers, serum amyloid A and procalcitonin", "setting": "[2]; nine days post-TBI 11 Gy, 1 mg/kg 24 hours prior to TBI", "result": "significant reduction"}, {"measurement": "circulating levels of erythropoietin (EPO) vs vehicle treated irradiated mice", "setting": "[3]; 7 Gy, 0.3 mg/kg 24 h pre-TBI (FIG. 5A)", "result": "significantly (p<0.0001) lower"}, {"measurement": "circulating levels of FLT3 ligand vs vehicle treated irradiated mice", "setting": "[3]; 7 Gy, 0.3 mg/kg 24 h pre-TBI (FIG. 5B)", "result": "significantly (p<0.0001) lower"}, {"measurement": "circulating levels of sP-Selectin vs vehicle", "setting": "[3]; days 2, 3, 7, and 15 post-irradiation", "result": "statistically significant increases (p<0.0001)"}, {"measurement": "circulating levels of E-Selectin vs vehicle", "setting": "[3]; days 3, 7 15 and 30 post-irradiation", "result": "statistically significant increases (p<0.0001)"}, {"measurement": "circulating levels of MMP-9 vs vehicle", "setting": "[3]; days 7 and 15 post-irradiation", "result": "statistically significant increases (p<0.0001)"}, {"measurement": "circulating levels of VCAM-1 vs vehicle", "setting": "[3]; days 15 and 30 post-irradiation", "result": "statistically significant increases (p<0.0001)"}, {"measurement": "Effects", "setting": "[4]", "result": "Protection of vascular size"}, {"measurement": "recovery from cytopenia of all blood cell counts vs vehicle control", "setting": "[5]; 7 Gy, 0.3 mg/kg 24 h pre-TBI", "result": "significant"}, {"measurement": "Neutrophil (NEU) counts", "setting": "[5]; [6]", "result": "0.31±0.026", "unit": "cells/μL"}, {"measurement": "white blood cell (WBC) counts", "setting": "[5]; [6]", "result": "0.5±0.037", "unit": "cells/μL"}, {"measurement": "lymphocyte (LYM) vs vehicle-treated group", "setting": "[5]; day 10 post-TBI 7 Gy", "result": "significant (p<0.05) increases"}, {"measurement": "platelet (PLT) count", "setting": "[5]; [7]", "result": "1565×10^3±148×10^3 cells/μL"}, {"measurement": "white blood cell (WBC) counts", "setting": "[5]; [7]", "result": "1.39±0.1756", "unit": "cells/μL"}, {"measurement": "RBC counts of irradiated vehicle-treated group compared with irradiated RWJ-800088 treated group", "setting": "[5]; day 14 post-TBI 7 Gy", "result": "same effect was also observed"}, {"measurement": "Neutrophil (NEU) counts", "setting": "[5]; [8]", "result": "1.54±0.21", "unit": "cells/μL"}, {"measurement": "white blood cell (WBC) counts", "setting": "[5]; [8]", "result": "2.43±0.32", "unit": "cells/μL"}, {"measurement": "platelet (PLT) count", "setting": "[5]; day 14 post-TBI 7 Gy, 0.3 mg/kg 24 h pre-TBI, irradiated RWJ-800088 treated group", "result": "1070×10^3±156×10^3 cells/μL"}, {"measurement": "% HCT of irradiated vehicle-treated group compared with irradiated RWJ-800088 treated group", "setting": "[5]; day 14 post-TBI 7 Gy, p<0.001", "result": "significantly lower"}, {"measurement": "monocyte (MON) counts vs irradiated vehicle-treated group", "setting": "[5]; days 7, 10 and 14 post-TBI 7 Gy, p<0.001", "result": "markedly higher"}, {"measurement": "PLT in non-irradiated groups vs saline", "setting": "[5]; non-irradiated, days 7 and 10 post-TBI (days 8 and 11 after administration), 0.3 mg/kg", "result": "significant (p<0.05) increase in PLT"}]}
